How the values were obtained:
[1] = tested on: lactatedehydrogenase (LDH); assay: liberation of lactatedehydrogenase (LDH) into the medium; details: check for cellular lysis
Description: In order to show the 5-LO inhibiting activity of the products of the present invention, a specific test based on human polymorphonuclear leukocytes is chosen.

[2] = tested on: dogs; assay: acute toxicity in dogs; format: in vivo, dog; details: after 28 days at doses of 200, 300, 400, 1000 and 2000 mg/kg
[3] = tested on: bacterial strains; assay: mutagenic activity in four bacterial strains; set-up: species or system bacteria
[4] = tested on: bursitis; assay: treatment of horses with bursitis; format: in vivo, horse; details: seven young horses, 15 mg/day intraarticular infiltration
[5] = tested on: dyspnea; assay: treatment of race horses with dyspnea; format: in vivo, horse; details: eleven race horses, intravenous 50 mg/day, one week
Method: Eleven race horses manifesting dyspnea of variable degree, accompanied of great sensibility in the movements and, in the majority of the cases respiratory anxiety, coughs and mucous-purulent nasal flux, were treated with an intravenous dose of Bobel-24 of 50 mg/day during one week.

[6] = tested on: seborrheic dermatitis; assay: treatment of dogs with seborrheic dermatitis; format: in vivo, dog; details: 15 dogs (Cockers), phase I or II, 1 mg/kg.day p.o. plus 2% shampoo
Method: A total of 15 dogs (Cockers) suffering from seborrheic dermatitis in phase I or II were treated with doses of 1 mg/kg.day p.o. of Bobel-24, and were simultaneously washed with a shampoo containing 2% of the same product.

[7] = tested on: chronic intestinal pathology, chronic lymphoplasmocitary enteritis and hemorrhagic cholitis; assay: treatment of dogs with gastrointestinal diseases; format: in vivo, dog; details: ten dogs, 1-2 mg/kg.day
Method: A total of ten dogs diagnosed chronic intestinal pathology, chronic lymphoplasmocitary enteritis (diagnosed through a biopsy and more than a year of evolution) and hemorrhagic cholitis, were treated with doses of 1-2 mg/kg.day of Bobel-24.

[8] = tested on: herpes simplex; assay: in vivo activity in patients with herpes simplex; set-up: species or system human (patients); details: 15 mg/day intramuscularly, a month
Description: (§1) The 2,4-disubstituted phenol derivatives of the present invention are anti-herpetic agents in vivo, since they eliminate the symptoms of patients suffering from different types of herpes simplex (genital herpes, herpes of mouth and lips, recurrent herpes), and of patients suffering from herpes zoster. There is no relapse after leaving the treatment. The products are active both intramuscularly and topically, the first via being preferred.
A total of 25 patients with symptoms of different herpes simplex (genital, buccal or reincident) were treated with 15 mg/day of Bobel-24, intramuscularly, during a month, with the following results: with the ten patients of genital herpes simplex, the results was excellent in 7 cases, good in 2 and regular in 1; of the twelve with buccal herpes simplex it was excellent in 9 cases, good in 2 and regular in 1; of the 3 with reincident herpes it was excellent in 2 of the cases and good in 1. […] The case of genital herpes which resulted "regular" was an obese and diabetic […], and although there was an improvement there was also reincidency. Independently an test for antiviral activity in vitro resulted negative.

[9] = tested on: herpes zoster; assay: in vivo activity in patients with herpes zoster; set-up: species or system human (patients); details: of 21 patients; 15 mg/day intramuscular injection, a month
Description: as §1
A total of 21 patients with clear symptoms of herpes zoster were treated with 15 mg/day of Bobel-24, via intramuscular injection, during a month. The results concerning the disappearance of the symptoms were the following: excellent in 18 cases, good in 2 cases, and regular in 1 case.

[10] = tested on: canine seborrheic dermatitis; assay: clinical trial on canine seborrheic dermatitis; format: in vivo, dog; set-up: key to Evolution, etiology idiopathic / Evolution, etiology demodex / Evolution, etiology follicular cyst / Evolution, etiology pyoderma / Evolution, etiology dermatomycosis / Evolution, etiology allergic to fleas / Evolution, etiology hypothyroidism / Evolution, etiology leishmaniosis: +++: very good response, clinically cured; ++: good response, marked lowering in the clinical signs; +: moderate response, improvement; -: negative response or no apparent improvement; key to Evolution, etiology dermatophytes: +++: very good response, total recovery; ++: good response, functionability recovery; +: moderate response, improvement; -: negative response or no apparent improvement
Method: (§2) The animals had been diagnosed to suffer from seborrheic dermatitis, and the diagnosis was confirmed by a biopsy. The treatment consisted of a weekly bath with a 2% Bobel-24 shampoo and evaluation of the treatment after 15 days. The efficiency of the treatment was analyzed evaluating the following therapeutic symptoms; removal of scabs and scales, greasiness reduction, sheborrheic odor reduction, relieve of the pruritus, and antiinflammatory effect. […] In view of the results the following conclusions were reached: […]

[11] = solubility in aqueous medium; format: physicochemical; details: in words
Method: Due to the insolubility of Bobel-24 in aqueous medium, it was previously dissolved in a 50% solution of lysine. An anionic sulfonated detergent was used as foaming agent, containing 10-15% tegobetaine, 20-30% texapone N-40, and water. A 2% shampoo was prepared with the following composition: 2 g Bobel-24, 12 ml of 50% aqueous solution of lysine, 48 ml of water, 40 ml of the anionic sulfonated detergent.

[12] = tested on: canine seborrheic dermatitis; assay: clinical trial on canine seborrheic dermatitis; format: in vivo, dog; set-up: key: +++: very good response, total recovery; ++: good response, functionability recovery; +: moderate response, improvement; -: negative response or no apparent improvement; details: weekly bath 2% shampoo, 15 days
Method: as §2

[13] = weekly bath 2% shampoo, 15 days, Scotty T 4 years

Question: For Oc1c(I)cc(I)cc1I [Bobel-24, 2,4,6-triiodophenol], which “LDH liberation into the medium” value [1] is on record?
Answer: cannot be attributed to cellular lysis

Question: What about the “acute toxicity in dogs” value [2] of the same molecule?
Answer: not observed

Question: What about the mutagenic activity [3] of the same molecule?
Answer: No mutagenic activity

Question: What about the reduction in inflammation [4] of the same molecule?
Answer: a reduction in the inflammation was obtained

Question: And the horses suffering relapse [5]?
Answer: None of the horses suffered relapse

Question: And the improvement [5]?
Answer: The improvement was quite high

Question: And the “time to disappearance of all the symptoms” value [5]?
Answer: ≤ 9 days

Question: And the “time to reincorporation to training, without any sequel” value [5]?
Answer: 21 days

Question: What about the “disappearance of the dermatitis” value [6] of the same molecule?
Answer: practically a total disappearance of the dermatitis

Question: What about the response [7] of the same molecule?
Answer: responded very positively in a short time (1-2 weeks)

Question: And the “disappearance of the symptoms, herpes simplex overall” value ([8]; 25 patients)?
Answer: clear and generalized disappearance of the symptoms

Question: What about the “cases with excellent result, reincident herpes” value ([8]; of 3 patients) of the same molecule?
Answer: 2 cases

Question: What about the “cases with good result, reincident herpes” value ([8]; of 3 patients) of the same molecule?
Answer: 1 cases

Question: And the “cases with excellent result, genital herpes simplex” value ([8]; of ten patients)?
Answer: 7 cases

Question: What about the “cases with good result, genital herpes simplex” value ([8]; of ten patients) of the same molecule?
Answer: 2 cases

Question: And the “cases with regular result, genital herpes simplex” value ([8]; of ten patients, obese and diabetic patient, reincidency)?
Answer: 1 cases

Question: And the “cases with excellent result, buccal herpes simplex” value ([8]; of twelve patients)?
Answer: 9 cases

Question: And the “cases with good result, buccal herpes simplex” value ([8]; of twelve patients)?
Answer: 2 cases

Question: And the “cases with regular result, buccal herpes simplex” value ([8]; of twelve patients)?
Answer: 1 cases

Question: What about the “cases with excellent result, herpes zoster” value [9] of the same molecule?
Answer: 18 cases

Question: What about the “cases with good result, herpes zoster” value [9] of the same molecule?
Answer: 2 cases

Question: And the “cases with regular result, herpes zoster” value [9]?
Answer: 1 cases

Question: What about the “secondary or adverse effects (mucosal or skin irritation, unpleasant smells)” value ([10]; 2% shampoo, topical) of the same molecule?
Answer: absence of secondary or adverse effects

Question: And the “scabs, greasiness, seborrheic odor, erithema and pruritus” value ([10]; 2% shampoo, all animals except one with dermatophytosis)?
Answer: a lowering of the scabs, disappearance of the greasiness and the seborrheic odor, disappearance of the erithema and the pruritus was observed

Question: What about the “result in idiopathic seborrheic dermatitis” value ([10]; 2% shampoo, improvement similar to oral therapy of corticoids) of the same molecule?
Answer: excellent

Question: And the “result in secondary seborrheic dermatitis” value ([10]; Bobel-24 shampoo)?
Answer: the shampoo improves the aspect of the fur, but does not combat the ethiological agent responsible for the disease

Question: What about the “Evolution, etiology hypothyroidism” value ([10]; weekly bath 2% shampoo, 15 days, Cocker A 9 years) of the same molecule?
Answer: ++

Question: And the “Evolution, etiology leishmaniosis” value ([10]; weekly bath 2% shampoo, 15 days, Cocker S 8 years)?
Answer: ++

Question: What about the “Evolution, etiology demodex” value ([10]; weekly bath 2% shampoo, 15 days, Mongrel 4 years) of the same molecule?
Answer: ++

Question: And the “Evolution, etiology allergic to fleas” value [10, 13]?
Answer: ++

Question: What about the “Evolution, etiology dermatophytes” value [10, 13] of the same molecule?
Answer: -

Question: What about the “Evolution, etiology follicular cyst” value ([10]; weekly bath 2% shampoo, 15 days, Yorkshire 7 years) of the same molecule?
Answer: ++

Question: And the “Evolution, etiology idiopathic” value ([10]; weekly bath 2% shampoo, 15 days, b367 Cocker A 13, b393 Cocker S 15, b394 Cocker S 12 years)?
Answer: +++

Question: What about the “Evolution, etiology pyoderma” value ([10]; weekly bath 2% shampoo, 15 days, b373 Pekinese 2, b396 German shepherd 10 years) of the same molecule?
Answer: ++

Question: And the “Evolution, etiology dermatomycosis” value ([10]; weekly bath 2% shampoo, 15 days, b381 Schnauzer 3, b387 German shepherd 1 year)?
Answer: ++

Question: And the “solubility in aqueous medium” value [11]?
Answer: insolubility

Question: And the “Evolution, etiology allergic” value ([12]; b363 Poodle 6, b364 Mongrel 14, b374 Mongrel 10, b376 Belgian shepherd 10, b382 Poodle 9, b392 Mongrel 5 years)?
Answer: +

Question: What about the “Evolution, etiology leishmania” value ([12]; b369 German shepherd 10, b377 Pekinese 11, b379 German shepherd 3 years) of the same molecule?
Answer: +
